From US12195424B2, “Antibiotic compounds” (The General Hospital Corporation, priority 2017, dated 2025) come the findings set out here.

Like-named read-outs stand apart in the source and are kept apart here.

The nature of the series: Pharmacokinetic analysis. The series is classed as in vivo, mice. The following applies: for half-life: 20 mg/kg. On the procedure: Pharmacokinetic analysis. Pharmacokinetic experiments were conducted by SAI Life Sciences Ltd. (Pune, India) in accordance with guidelines provided by the Committee for the Purpose of Control and Supervision of Experiments on Animals (CPCSEA). The Institutional Animal Ethics Committee (IAEC) approved the experimental protocol. In brief, healthy female CD1 mice (6 weeks old) weighing between 20 to 25 g were procured from Hylasco (Hyderabad, India). Analog 2 was dissolved in a 1:1 solution of Kolliphor EL (Sigma-Aldrich, St Louis, MO, USA) and ethanol and then diluted 1:10 in saline to a final concentration of 2 mg/ml. Groups of mice (n=3) were treated with 20 mg/kg Analog 2 (i.p.). Blood samples were collected as terminal a bleed under light isoflurane anesthesia through a cardiac puncture such that samples were obtained at pre-dose, 0.08, 0.25, 0.5, 1, 2, 4, 8 & 24 h. Immediately after collection, plasma was harvested by centrifugation and stored at −70° C. until analysis. All samples were processed for analysis by protein precipitation using acetonitrile and analyzed with fit-for-purpose LC/MS/MS method (LLOQ=4.90 ng/mL for plasma). Pharmacokinetic parameters were calculated using the non-compartmental analysis tool of Phoenix WinNonlin (Version 6.3). No statistical methods were used to predetermine samples size. The experiments were not randomized, and investigators were not blinded to allocation during experiments and outcome assessment. Outliers were determined based on Grubb's test using GraphPad Prism 7 (GraphPad Software, La Jolla, CA, USA).

For `OCc1ccc2cc(-c3ccc(O)c(C45CC6CC(CC(C6)C4)C5)c3)ccc2c1` [Analog 2, 2-(adamantan-1-yl)-4-(6-(hydroxymethyl)naphthalen-2-yl)phenol], for the setting “female, CD1, mouse, ip, mice, single injection 20 mg/kg i.p., plasma, read-out: AUCinf (area under the curve to infinite)”, the AUC(0-inf) came out at 16500 ng·h/mL. Besides, the AUC(0-t) (female, CD1, mouse, ip, mice, single injection 20 mg/kg i.p., plasma, read-out: AUClast (area under the curve to last time point)) worked out at 16400 ng·h/mL. Further, where the note is “female, CD1, mouse, ip, mice, single injection 20 mg/kg i.p., plasma, read-out: Cmax (maximum concentration observed)”, the Cmax turned out to be 16100 ng/mL. Further, the Tmax (female, CD1, mouse, ip, mice, single injection 20 mg/kg i.p., plasma, read-out: Tmax (the time taken to reach the maximum concentration)) was 0.5 h. Also, the half-life reads like this: (female, CD1, mouse, plasma, ip, intraperitoneal single dose of 20 mg/kg, as stated in Example 3, read-out: elimination half-life (converted)) 4.5 h; (female, CD1, mouse, plasma, ip, mice, single injection 20 mg/kg i.p., plasma, read-out: T1/2 (Half-life) (converted)) 4.49 h. The compound further showed a maximum plasma concentration (intraperitoneal single dose of 20 mg/kg, as stated in Example 3) of about 10 µg/mL. In addition, the “CL (clearance)” value (mice, single injection 20 mg/kg i.p., plasma) is 20.16 mL/min/kg.
